Source: US7906709B2, “Methods for breeding glyphosate resistant plants and compositions thereof” (priority 2006, dated 2011)

Test system: F1 hybrid of perennial ryegrass and glyphosate resistant rigid ryegrass
Experiment: Glyphosate sensitivity of F1 hybrid population
Type: in vivo, Lolium perenne x Lolium rigidum
Conditions: 50 plants, 3 weeks after treatment
Method: The R biotype of California rigid ryegrass, which survived 8× glyphosate and perennial ryegrass, which died from 0.25× of glyphosate, are grown individually in 950-ml pots with professional planting mix media as discussed above. Plants are maintained in greenhouse with supplemental light, watered daily, and fertilized weekly with NPK water soluble fertilizer (20-20-20). At the mature vegetative stage, perennial ryegrass plants are vernalized in the growth chamber with the temperature 4 ±1 C, 8 h day and 16 h night. After 4 weeks vernalization, the plants are removed and maintained in greenhouse until flowering.
Seed heads of perennial ryegrass are designated to be pollinated by California rigid ryegrass also vice-verse because both of the species are allogamus plants. Both are known to be self-incompatible. After the emergence of seed heads and before the pollen opened, one plant from each species is isolated in one room of greenhouse. To provide conditions for cross-pollination, perennial ryegrass and rigid ryegrass plants are placed next to each other. During the pollination period, plants are maintained regularly as mentioned previously until the seed reached the maturity. The successful hybridization is indicated with the full development of mature seeds which had brown color. Seeds are harvested from both perennial and rigid ryegrass. Seeds from perennial ryegrass hybrids are used for further evaluation.
Seeds of the F1 hybrid harvested from perennial ryegrass are grown and maintained as individual plants in the greenhouse as described previously. At the tillering stage, 50 plants for each of glyphosate rates (0.25, 0.5, 1.0, 1.5, 2.0, 4.0, and 8×, where x=1.12 kg ha^−1) are evaluated for sensitivity or resistance. Glyphosate is delivered in 187 L ha^−1 spray solutions with 172.5 kPa pressure using a flat fan nozzle. The dead or survivors in each treatment are counted 3 weeks after treatment and the plants with the highest level of resistance are further maintained and intercrossed to generate F2.

[1] = Glyphosate 0.25 kg ha^-1 as headed
[2] = Glyphosate 0.50 kg ha^-1 as headed
[3] = Glyphosate 1 kg ha^-1 as headed
[4] = Glyphosate 4 kg ha^-1 as headed
[5] = Glyphosate 8 kg ha^-1 as headed

For `O=C(O)CNCP(=O)(O)O` [glyphosate, N-(phosphonomethyl) glycine], the “Severely injured and dead” value [1] was 0%, the Survivors [1] was 100% and the “Severely injured and dead” value [2] was 6%. The Survivors [2] was 94%, the “Severely injured and dead” value [3] was 10% and the Survivors [3] was 90%. The Survivors (Glyphosate 2 kg ha^-1 as headed (2× in text)) was 90%, the Survivors (Glyphosate 2 kg ha^-1 as headed (2× in text), listed as Glyphosate) was 90**) Percent and the “Severely injured and dead” value (Glyphosate 2 kg ha^-1 as headed) was 10%. The “Severely injured and dead” value [4] was 100%, the Survivors [4] was 0% and the “Severely injured and dead” value [5] was 100%. It also gave a Survivors [5] of 0%.
